ChEMBL document CHEMBL1127205, “Synthesis and anticonvulsant activity of 3-arylamino-4-aryl-5-(N-4-chlorophenylthiocarbamido)-1,2,4-thiadiazoles” (Bioorg Med Chem Lett, 1993)

Key:
Rattus norvegicus [1] = species: Rattus norvegicus; experiment: Effective dose was measured in rats using maximal electroshock seizure test; assay type: functional
Rattus norvegicus [2] = experiment: Effective dose was measured in rats using subcutaneous pentylenetetrazole seizure test; assay type: functional; conditions: sc
Rattus norvegicus [3] = species: Rattus norvegicus; experiment: The activity was measured by using barbiturate hypnosis potentiation effect test; assay type: functional
Rattus norvegicus [4] = species: Rattus norvegicus; experiment: % protection was measured in rats using maximal electroshock seizure test; p<0.05; assay type: functional
Rattus norvegicus [5] = experiment: % protection was measured in rats using subcutaneous pentylenetetrazole seizure test; assay type: functional; design: concentration or dose not given beside the values
Rattus norvegicus [6] = experiment: Sleeping time was determined in rats after administration of compound; p<0.05; assay type: functional
[7] = Acute toxicity was measured in rats using maximal electroshock seizure test; conditions: rat, in vivo
Rattus norvegicus [8] = experiment: Effective dose was measured in rats using maximal electroshock seizure test(ip); showed no protection up to 100 mg/kg (i.p. dose); assay type: functional, organism-based; design: dose 100 mg/kg
Rattus norvegicus [9] = experiment: Effective dose was measured in rats using maximal electroshock seizure test(ip); showed no protection up to 120 mg/kg (i.p. dose); assay type: functional, organism-based; design: dose 120 mg/kg
Rattus norvegicus [10] = species: Rattus norvegicus; experiment: % protection was measured in rats using maximal electroshock seizure test; assay type: functional
Rattus norvegicus [11] = species: Rattus norvegicus; experiment: % protection was measured in rats using maximal electroshock seizure test; p<0.01; assay type: functional
Rattus norvegicus [12] = experiment: % protection was measured in rats using subcutaneous pentylenetetrazole seizure test; p<0.05; assay type: functional
Rattus norvegicus [13] = experiment: Sleeping time was determined in rats after administration of compound; non-significant; assay type: functional
[14] = Tested for therapeutic index of compound (LD50/MES ED50); conditions: rat; read-out: TI
Rattus norvegicus [15] = experiment: Sleeping time was determined in rats at 30 mg/kg intraperitoneal dose; assay type: functional
Rattus norvegicus [16] = experiment: Sleeping time was determined in rats after administration of compound; NS non-significant; assay type: functional

| SMILES | ED50 (Rattus norvegicus [1]) | ED50 (Rattus norvegicus [2]) | Hypnosis potentiation (Rattus norvegicus [3]) | Protection (Rattus norvegicus [4]) | Protection (Rattus norvegicus [5]) | Sleeping time (Rattus norvegicus [6]) | LD50 [7] | ED50 (Rattus norvegicus [8]) | ED50 (Rattus norvegicus [9]) | Protection (Rattus norvegicus [10]) | Protection (Rattus norvegicus [11]) | Protection (Rattus norvegicus [12]) | Sleeping time (Rattus norvegicus [13]) | selectivity ratio [14] | Sleeping time (Rattus norvegicus [15]) | Sleeping time (Rattus norvegicus [16]) |
| --- | --- | --- | --- | --- | --- | --- | --- | --- | --- | --- | --- | --- | --- | --- | --- | --- |
| O=C1NC(=O)C(c2ccccc2)(c2ccccc2)N1 [PHENYTOIN] | 9.5 mg/kg | 100 mg/kg | 54.02% | 75% | 37.5% | 100.5 min | 65.5 mg/kg | – | – | – | – | – | – | – | – | – |
| COc1ccccc1Nc1ns/c(=N\C(S)=N\c2ccc(Cl)cc2)n1-c1ccccc1OC | – | – | – | – | 0% | – | – | no protection up to 100 mg/kg | no protection up to 100 mg/kg | 0% | – | – | – | – | – | – |
| S=C(/N=c1\snc(Nc2ccc(Cl)cc2)n1-c1ccc(Cl)cc1)Nc1ccc(Cl)cc1 | 10 mg/kg | 22.1 mg/kg | 11.58% | – | – | – | 117 mg/kg | – | – | – | 87.5% | 75% | 72.81 min | 11.7 | – | – |
| Cc1ccccc1Nc1ns/c(=N\C(S)=N\c2ccc(Cl)cc2)n1-c1ccccc1C | – | – | – | – | 0% | – | – | no protection up to 100 mg/kg | no protection up to 100 mg/kg | 0% | – | – | – | – | – | – |
| CCCC(C)C1(CC)C(=O)N=C([O-])NC1=O.[Na+] (stereo unspecified) [PENTOBARBITAL SODIUM] | – | – | – | – | – | – | – | – | – | – | – | – | – | – | 65.25 min | – |
| S=C(/N=c1\snc(Nc2cccc(Cl)c2)n1-c1cccc(Cl)c1)Nc1ccc(Cl)cc1 | 17.5 mg/kg | 26.2 mg/kg | 5.97% | 75% | 75% | – | 120 mg/kg | – | – | – | – | – | 69.15 min | 6.85 | – | – |
| COc1ccc(Nc2ns/c(=N\C(S)=N\c3ccc(Cl)cc3)n2-c2ccc(OC)cc2)cc1 | 20.3 mg/kg | 150 mg/kg | 3.14% | – | 0% | – | 210 mg/kg | – | – | 50% | – | – | – | 10.3 | – | 67.3 min |
| COc1cccc(Nc2ns/c(=N\C(S)=N\c3ccc(Cl)cc3)n2-c2cccc(OC)c2)c1 | – | – | – | – | 0% | – | – | no protection up to 100 mg/kg | no protection up to 100 mg/kg | 0% | – | – | – | – | – | – |
| Cc1cccc(Nc2ns/c(=N\C(S)=N\c3ccc(Cl)cc3)n2-c2cccc(C)c2)c1 | – | – | – | – | 0% | – | – | no protection up to 100 mg/kg | no protection up to 100 mg/kg | 0% | – | – | – | – | – | – |
| Cc1ccc(Nc2ns/c(=N\C(S)=N\c3ccc(Cl)cc3)n2-c2ccc(C)cc2)cc1 | 46.7 mg/kg | – | 15.63% | – | 0% | – | 300 mg/kg | – | no protection up to 120 mg/kg | 50% | – | – | 75.45 min | 6.42 | – | – |
| S=C(/N=c1\snc(Nc2ccccc2Cl)n1-c1ccccc1Cl)Nc1ccc(Cl)cc1 | 12 mg/kg | 35.1 mg/kg | 20.58% | 75% | 0% | – | 175 mg/kg | – | – | – | – | – | – | 14.6 | – | 78.68 min |
| S=C(/N=c1\snc(Nc2ccccc2)n1-c1ccccc1)Nc1ccc(Cl)cc1 | 76.5 mg/kg | – | 4.98% | – | 0% | – | 250 mg/kg | – | – | 25% | – | – | 68.5 min | 3.26 | – | – |
